Experimental data as given in paper PMC12368478, “Targeting Ubiquitin‐Specific Protease 7 with Novel 5‐Amino‐Pyrazole Inhibitors: Design, Synthesis, and Biological Evaluation” (Chemmedchem, 2025).
Values joined by “and” are separate entries in the source; they are usually repeats but may differ in a detail not shown here. Equal values may be shown once.

Tests used:
A549 lung adenocarcinoma = assay: MTT assay, A549; assay type: cell-based; details: A549, 10 μM, 48 h
Protocol: (§1) To evaluate the cytotoxicity of the novel USP‐7 inhibitors, compounds 1a–d were preliminary screened at a fixed concentration of 10 μM against eight different cancer cell lines (namely, MCF7 breast adenocarcinoma, SKOV‐3 ovarian adenocarcinoma, Hep‐G2 hepatocellular carcinoma, SK‐Mel28 cutaneous melanoma, MDA‐MB‐231 breast adenocarcinoma, SK‐BR3 breast adenocarcinoma, HeLa cervix epithelioid carcinoma, and A549 lung adenocarcinoma) as well as nonmutated human embryonic fibroblasts (GM‐6114). Cisplatinum (Cis‐Pt) was used as the reference compound.
(§2) To perform the MTT assay, SK‐BR3 (breast adenocarcinoma, Biologic Bank and Cell Factory, IRCCS Policlinico San Martino, Genoa, Italy), MCF‐7 (breast adenocarcinoma, Biologic Bank and Cell Factory, IRCCS Policlinico San Martino, Genoa, Italy), SK‐Mel28 (skin melanoma, Biologic Bank and Cell Factory, IRCCS Policlinico San Martino, Genoa, Italy), Hep‐G2 (hepatocellular carcinoma, ATCC, Manassas, VA), SKOV‐3 (ovarian adenocarcinoma, ATCC, Manassas, VA), MDA‐MB‐231 (breast adenocarcinoma, Biologic Bank and Cell Factory, IRCCS Policlinico San Martino, Genoa, Italy), HeLa (cervical adenocarcinoma, Biologic Bank and Cell Factory, IRCCS Policlinico San Martino, Genoa, Italy), A549 (lung adenocarcinoma, ATCC, Manassas, VA), and GM‐6114 (normal human embryonic fibroblast, ATCC, Manassas, VA) cell lines were cultured in Dulbecco's modified eagle medium (DMEM added with 10% Fetal bovine serum, 2 mM Glutamine, and 1% pen‐strep) and incubated in a humidified environment at 37 °C with 5% CO2. Reagents were acquired from EuroClone (Milan, Italy). All chemical compounds were dissolved in DMSO to give a 10 mM stock solution. Then, after an intermediate dilution in growth medium, they were added to the cultured cells at a final working concentration of 10 μM and incubated for 48 h. At the end of the incubation, 30 μL of MTT (3‐(4,5‐dimethyl‐2‐thiazolyl)‐2,5‐diphenyl‐2H‐tetrazolium bromide) at a concentration of 2 mg mL^−1 in phosphate buffered saline (PBS) were added into each well and further incubated for 4 h. Finally, the supernatants were removed and 100 μL well of DMSO were added to each well to dissolve the Formazan precipitates. After 20 min, plates were read at 570 nm. Results are expressed as the percentage of the control samples where cells have been treated with the same amount of DMSO but without any chemical compound. The assay was repeated three times, and a single compound was tested six times. Means and standard deviations were calculated.

[1] = system: HeLa cervix epithelioid carcinoma; assay: MTT assay, HeLa; assay type: cell-based; details: 10 μM, 48 h
Protocol: as §1, §2

[2] = system: Hep‐G2 hepatocellular carcinoma; assay: MTT assay, Hep‐G2; assay type: cell-based; details: Hep‐G2, 10 μM, 48 h
Protocol: as §1, §2

[3] = system: MCF7 breast adenocarcinoma; assay: MTT assay, MCF7; assay type: cell-based; details: MCF7, 10 μM, 48 h
Protocol: as §1, §2

[4] = system: MDA‐MB‐231 breast adenocarcinoma; assay: MTT assay, MDA‐MB‐231; assay type: cell-based; details: MDA‐MB‐231, 10 μM, 48 h
Protocol: as §1, §2

[5] = system: SK‐BR3 breast adenocarcinoma; assay: MTT assay, SK‐BR3; assay type: cell-based; details: SK‐BR3, 10 μM, 48 h
Protocol: as §1, §2

[6] = system: SK‐Mel28 cutaneous melanoma; assay: MTT assay, SK‐Mel28; assay type: cell-based; details: SK‐Mel28, 10 μM, 48 h
Protocol: as §1, §2

[7] = system: SKOV‐3 ovarian adenocarcinoma; assay: MTT assay, SKOV‐3; assay type: cell-based; details: SKOV‐3, 10 μM, 48 h
Protocol: as §1, §2

recombinant USP‐7 = target: T1, recombinant USP‐7 (Homo sapiens, UniProt Q93009); assay: USP‐7 fluorescence-based enzymatic assay (Ub‐AMC); assay type: biochemical; details: recombinant USP‐7, Ubiquitin–AMC substrate, 30 min preincubation; average of three separate experiments
T1 construct: purchased BPS Bioscience 79,256
Protocol: The inhibition efficiency of compounds 1a–d and 2a–d on the USP‐7 enzyme was assessed using a fluorescence‐based enzymatic assay, employing Ubiquitin–AMC as a substrate. In this assay, USP‐7 hydrolyzes Ubiquitin–AMC, leading to an increase in fluorescence signal. To evaluate the inhibitory potential, recombinant USP‐7 was preincubated with varying concentrations of the test compounds before adding the substrate, and fluorescence intensity was subsequently measured. […] Additionally, the elongation of the side chain in compounds 2a–d completely abolished the activity.
In vitro enzymatic inhibition was measured using the USP‐7 inhibitor screening assay kit (catalog #79,256, BPS Bioscience, San Diego, CA, USA) according to the manufacturer's instructions. Briefly, compound stock solutions were prepared in DMSO and diluted tenfold to obtain the working solutions. Then, these solutions and the vehicle control were added to the black 384‐wells plate, together with the USP‐7 enzyme, previously diluted as required by the manufacturer, and incubated at rt for 30 min. Then, the Ub‐AMC substrate was diluted 400‐fold and added to the plate, followed by incubation at rt for 30 min. The final DMSO amount in each well was 1%.

[8] = system: nonmutated human embryonic fibroblasts (GM‐6114); assay: MTT assay, GM‐6114; assay type: cell-based; details: GM‐6114 healthy fibroblasts, 10 μM, 48 h
Protocol: as §1, §2

[9] = Parallel artificial membrane permeability assay (PAMPA); assay type: in vitro ADME; details: for LogPe ± SD: PBS pH 7.4, 5 h
Protocol: The assay was prepared as follows: 300 μL of PBS pH 7.4 (5% DMSO) was placed in the acceptor wells. A phosphatidylcholine (PC) solution was obtained by dissolving and vortexing PC at 1% w/v in dodecane and solubilized using an ultrasound bath until a clear solution was obtained. […] of this solution was deposited on the membrane portion of the donor well. 150 μL of each molecule, at 100–250 μM final concentration (5% DMSO), was pipetted in the […]. The acceptor (Multiscreen transport Receiver Plate, 96‐well, polystyrene, Millipore) and donor plates (Multiscreen Filter Plates, IP, […], clear, hydrophobic PVDF, Millipore) were subsequently assembled and incubated for 5 h under gentle orbital shaking. The experiment was conducted in duplicate. Lucifer yellow was used as a negative control to establish the integrity of the membrane, quantifying its concentration in both acceptor and donor solutions using fluorescence. […] The results are expressed as means ± SEM of at least three independent experiments.

[10] = system: neuroblastoma HTLA‐230 cells; parameters: method as in PMID 36780313; details: cited from earlier work
USP‐7 = system: USP‐7; parameters: method as in PMID 37298148; details: in vitro and in‐cell assays, neuroblastoma‐related cells; cited from earlier work

T1 sequence (Q93009 whole entry): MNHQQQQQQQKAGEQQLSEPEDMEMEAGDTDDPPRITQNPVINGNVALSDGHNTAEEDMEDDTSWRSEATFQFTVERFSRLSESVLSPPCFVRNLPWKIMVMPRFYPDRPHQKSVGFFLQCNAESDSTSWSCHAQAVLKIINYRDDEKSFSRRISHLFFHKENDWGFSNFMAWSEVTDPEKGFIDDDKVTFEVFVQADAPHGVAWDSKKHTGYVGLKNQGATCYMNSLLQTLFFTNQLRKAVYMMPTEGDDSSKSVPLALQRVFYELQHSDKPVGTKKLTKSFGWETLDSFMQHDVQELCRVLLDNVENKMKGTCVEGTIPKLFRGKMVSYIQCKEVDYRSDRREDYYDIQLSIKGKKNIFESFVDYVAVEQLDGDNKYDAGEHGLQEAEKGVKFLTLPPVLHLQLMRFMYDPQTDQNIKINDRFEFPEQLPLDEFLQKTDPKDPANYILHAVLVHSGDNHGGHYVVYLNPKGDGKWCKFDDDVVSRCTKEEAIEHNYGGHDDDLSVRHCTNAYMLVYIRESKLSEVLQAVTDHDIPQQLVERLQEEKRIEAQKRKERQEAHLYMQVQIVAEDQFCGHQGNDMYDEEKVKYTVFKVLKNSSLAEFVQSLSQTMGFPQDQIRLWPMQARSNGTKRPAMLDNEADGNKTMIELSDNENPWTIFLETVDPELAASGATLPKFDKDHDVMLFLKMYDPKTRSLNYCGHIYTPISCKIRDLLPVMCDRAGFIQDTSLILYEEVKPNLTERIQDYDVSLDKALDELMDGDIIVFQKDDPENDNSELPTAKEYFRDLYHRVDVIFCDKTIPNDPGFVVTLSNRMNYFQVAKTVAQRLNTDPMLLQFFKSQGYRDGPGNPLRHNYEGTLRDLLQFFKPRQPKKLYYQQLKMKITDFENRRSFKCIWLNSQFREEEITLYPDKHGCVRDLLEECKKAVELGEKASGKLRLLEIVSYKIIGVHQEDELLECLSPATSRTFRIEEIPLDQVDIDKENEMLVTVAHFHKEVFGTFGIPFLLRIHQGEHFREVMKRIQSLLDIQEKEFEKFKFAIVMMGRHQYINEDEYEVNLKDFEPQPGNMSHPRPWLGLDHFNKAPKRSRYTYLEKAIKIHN

Row | SMILES | IC50 (recombinant USP‐7) | LogPe ± SD ([9]; 100 μM) | LogPe ± SD ([9]; 250 μM) | membrane permeability (in words) ([9]; 100 and 250 μM) | Cell growth percent [%] (A549 lung adenocarcinoma) | Cell growth percent [%] [1] | Cell growth percent [%] [2] | Cell growth percent [%] [3] | Cell growth percent [%] [4] | Cell growth percent [%] [5] | Cell growth percent [%] [6] | Cell growth percent [%] [7] | Cell growth percent [%] [8] | inhibition of migratory ability [10] | inhibition of USP‐7 enzymatic activity and expression levels (USP‐7)
1 | N.N.[Cl][Pt][Cl] [Cis ‐Pt, Cisplatinum, reference compound] |  |  |  |  | 59.09% | 29.33% | 38.07% | 72.74% | 86.07% | 70.59% | 44.40% | 26.83% |  |  | 
2 | CCOC(=O)c1cnn(CC(C)O)c1NC(=O)Nc1cccc(F)c1 (stereo not drawn) [STIRUR‐41, reference compound] | 2.77 ± 0.56 µM |  |  |  | 38.88% | 99.83% | 111.36% | 110.71% | 64.32% | 97.17% | 94.26% | 100.50% | 38.50% | significant inhibition | inhibit both the enzymatic activity of USP‐7 and its expression levels

Second part, led by results:

Row | IC50 (recombinant USP‐7) | LogPe ± SD ([9]; 100 μM) | LogPe ± SD ([9]; 250 μM) | membrane permeability (in words) ([9]; 100 and 250 μM) | SMILES | Cell growth percent [%] (A549 lung adenocarcinoma) | Cell growth percent [%] [1] | Cell growth percent [%] [2] | Cell growth percent [%] [3] | Cell growth percent [%] [4] | Cell growth percent [%] [5] | Cell growth percent [%] [6] | Cell growth percent [%] [7] | Cell growth percent [%] [8] | inhibition of migratory ability [10] | inhibition of USP‐7 enzymatic activity and expression levels (USP‐7)
3 | 1.8 ± 0.39 µM |  |  |  | CCOC(=O)c1cnn(CC(C)OC(=O)Nc2ccc(F)cc2)c1N (stereo not drawn) [Compound 1c, Ethyl 5‐Amino‐1‐(2‐(((4‐Fluorophenyl)Carbamoyl)Oxy)Propyl)‐1H‐Pyrazole‐4‐Carboxylate] | 114.96% | 108.28% | 100.11% | 108.02% | 103.39% | 101.55% | 88.22% | 99.94% | 112.09% |  | 
4 | 2.19 ± 0.49 µM |  |  |  | CCOC(=O)c1cnn(CC(C)OC(=O)Nc2ccccc2F)c1N (stereo not drawn) [Compound 1a, Ethyl 5‐Amino‐1‐(2‐(((2‐Fluorophenyl)Carbamoyl)Oxy)Propyl)‐1H‐Pyrazole‐4‐Carboxylate] | 104.43% | 105.06% | 97.50% | 109.46% | 106.29% | 98.76% | 95.28% | 102.26% | 105.96% |  | 
5 | 1.48 ± 0.31 µM |  |  |  | CCOC(=O)c1cnn(CC(C)OC(=O)Nc2cccc(F)c2)c1N (stereo not drawn) [Compound 1b, Ethyl 5‐Amino‐1‐(2‐(((3‐Fluorophenyl)Carbamoyl)Oxy)Propyl)‐1H‐Pyrazole‐4‐Carboxylate] | 39% and 39.06% | 95.63% | 95.70% | 104.08% | 73.53% | 135.91% | 115.09% | 98.78% | 68.07% |  | 
6 | 1.31 ± 0.21 µM | −4.54 ± 0.02 | −4.81 ± 0.00 | highly permeable | CCOC(=O)c1cnn(CC(C)OC(=O)Nc2cccc(C(F)(F)F)c2)c1N (stereo not drawn) [Compound 1d, Ethyl 5‐Amino‐1‐(2‐(((3‐(Trifluoromethyl)Phenyl)Carbamoyl)Oxy)Propyl)‐1H‐Pyrazole‐4‐Carboxylate] | 90.69% | 106.40% | 100.73% | 113.85% | 119.94% | 95.04% | 90.77% | 99.40% | 96.18% |  | 
